Test results from the supplement of paper PMC10307832.

Tests used:
Test in all cases: relative viability (nuclei count vs DMSO), 5 days (fraction); higher = more cells survive
NCI-H1648 = system: NCI-H1648
How it was run: (§1)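 The day after seeding in 1536-well plates, lung cancer cell lines were treated by pin tool with a single drug, or with a fixed anchor-drug dose together with five library-drug doses (not always all listed) in √10 steps. After 5 days, a combined fix-and-stain solution (final 0.05% Triton X-100, 1% formaldehyde, 1 ug/ml Hoechst) was added. Nuclei counted on 4× images gave relative viability as treated counts over vehicle counts, reported as the median of duplicate plates.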

NCI-H1651 = system: NCI-H1651
How it was run: as §1

NCI-H1944 = system: NCI-H1944
How it was run: as §1

NCI-H520 = system: NCI-H520
How it was run: as §1

NCI-H650 = system: NCI-H650
How it was run: as §1

NCI-H838 = system: NCI-H838
How it was run: as §1

PC-3 [JPC-3] = system: PC-3 [JPC-3]
How it was run: as §1

RERF-LC-KJ = system: RERF-LC-KJ
How it was run: as §1

Structure (SMILES) | relative viability (NCI-H1648; first compound 0.04 µM) | relative viability (NCI-H1648; first compound 0.1265 µM) | relative viability (NCI-H1648; first compound 0.4 µM) | relative viability (NCI-H1648; first compound 1.265 µM) | relative viability (NCI-H1648; first compound 4 µM) | relative viability (NCI-H1651; first compound 0.04 µM) | relative viability (NCI-H1651; first compound 0.1265 µM) | relative viability (NCI-H1651; first compound 0.4 µM) | relative viability (NCI-H1651; first compound 1.265 µM) | relative viability (NCI-H1651; first compound 4 µM) | relative viability (NCI-H1944; first compound 0.04 µM) | relative viability (NCI-H1944; first compound 0.1265 µM) | relative viability (NCI-H1944; first compound 0.4 µM) | relative viability (NCI-H1944; first compound 1.265 µM) | relative viability (NCI-H1944; first compound 4 µM) | relative viability (NCI-H520; first compound 0.04 µM) | relative viability (NCI-H520; first compound 0.1265 µM) | relative viability (NCI-H520; first compound 0.4 µM) | relative viability (NCI-H520; first compound 1.265 µM) | relative viability (NCI-H520; first compound 4 µM) | relative viability (NCI-H650; first compound 0.04 µM) | relative viability (NCI-H650; first compound 0.1265 µM) | relative viability (NCI-H650; first compound 0.4 µM) | relative viability (NCI-H650; first compound 1.265 µM) | relative viability (NCI-H650; first compound 4 µM) | relative viability (NCI-H838; first compound 0.04 µM) | relative viability (NCI-H838; first compound 0.1265 µM) | relative viability (NCI-H838; first compound 0.4 µM) | relative viability (NCI-H838; first compound 1.265 µM) | relative viability (NCI-H838; first compound 4 µM) | relative viability (PC-3 [JPC-3]; first compound 0.04 µM) | relative viability (PC-3 [JPC-3]; first compound 0.1265 µM) | relative viability (PC-3 [JPC-3]; first compound 0.4 µM) | relative viability (PC-3 [JPC-3]; first compound 1.265 µM) | relative viability (PC-3 [JPC-3]; first compound 4 µM) | relative viability (RERF-LC-KJ; first compound 0.04 µM) | relative viability (RERF-LC-KJ; first compound 0.1265 µM) | relative viability (RERF-LC-KJ; first compound 0.4 µM) | relative viability (RERF-LC-KJ; first compound 1.265 µM) | relative viability (RERF-LC-KJ; first compound 4 µM)
Cc1sc2c(c1C)C(c1ccc(Cl)cc1)=N[C@@H](CC(=O)OC(C)(C)C)c1nnc(C)n1-2 [JQ1] + CC(=O)Nc1cccc(-n2c(=O)n(C3CC3)c(=O)c3c(Nc4ccc(I)cc4F)n(C)c(=O)c(C)c32)c1 [Trametinib] (partner 0.02 µM) | 0.432 | 0.473 | 0.337 | 0.303 | 0.245 | 0.782 | 0.742 | 0.603 | 0.496 | 0.437 | 0.409 | 0.394 | 0.305 | 0.288 | 0.278 | 0.565 | 0.66 | 0.386 | 0.391 | 0.239 | 0.852 | 0.812 | 0.779 | 0.371 | 0.275 | 0.521 | 0.267 | 0.375 | 0.293 | 0.202 | 0.683 | 0.609 | 0.49 | 0.475 | 0.461 | 0.907 | 0.803 | 0.817 | 0.532 | 0.449
Cc1sc2c(c1C)C(c1ccc(Cl)cc1)=N[C@@H](CC(=O)OC(C)(C)C)c1nnc(C)n1-2 [JQ1] + CC(=O)c1c(C)c2cnc(Nc3ccc(N4CCNCC4)cn3)nc2n(C2CCCC2)c1=O [Palbociclib] (partner 0.5 µM) | 0.259 | 0.303 | 0.332 | 0.358 | 0.309 | 0.494 | 0.416 | 0.403 | 0.299 | 0.282 | 0.327 | 0.308 | 0.232 | 0.217 | 0.179 | 0.197 | 0.196 | 0.184 | 0.154 | 0.143 | 0.328 | 0.259 | 0.228 | 0.176 | 0.164 | 0.205 | 0.194 | 0.167 | 0.164 | 0.162 | 0.532 | 0.554 | 0.513 | 0.575 | 0.438 | 1.13 | 0.868 | 0.887 | 0.254 | 0.246
